Reference: patent US6479527B1, “Bicyclic pyrrole derivatives as MCP-1 inhibitors” (AstraZeneca UK Limited, priority 1998, dated 2002)
Where two headings read alike, the source gives them in different places. Each block holds one compound with its values, some of them ahead of it.

Tests used:
[1] = tested on: RANTES induced chemotaxis of THP-1 cells; assay: RANTES chemotaxis assay; assay type: cell-based; details: Homo sapiens, 2 nM RANTES as chemoattractant
Experimental: (§1) c) hMCP-1 Mediated Chemotaxis and RANTES Assay.
(§2) In vitro chemotaxis assays were performed using either the human monocytic cell line THP-1 or peripheral blood mixed monocytes obtained from fresh human blood purified by erythrocyte sedimentation followed by density gradient centrifugation over 9.6% (w/v) sodium metrizoate and 5.6% (w/v) polysaccharide, density 1.077 g/ml (Lymphoprep™ Nycomed). Cell migration through polycarbonate membranes was measured by enumerating those passing through either directly by Coulter counting or indirectly by use of a colourimetric viability assay measuring the cleavage of a tetrazolium salt by the mitochondrial respiratory chain (Scudiero D. A. et al. 1988, Cancer Res., 48, 4827-4833).
(§3) Chemoattractants were introduced into a 96-well microtiter plate which forms the lower well of a chemotaxis chamber fitted with a PVP-free 5 μm poresize polycarbonate adhesive framed filter membrane (NeuroProbe MB series, Cabin John, Md. 20818, USA) according to the manufacturer's instructions. The chemoattractant was diluted as appropriate in synthetic cell culture medium, RPMI 1640 (Gibco) or supplemented with 2 mM glutamine and 0.5% BSA, or alternatively with HBSS with Ca2+ and Mg2+ without Phenol Red (Gibco) plus 0.1% BSA. […] The plate was incubated at 37° C. for 3 h and the absorbance of the soluble formazan product was read on a microtitre plate reader at 450 nm. […]

MCP-1 receptor B (CCR2B) = target: T1, MCP-1 receptor B (CCR2B) (Homo sapiens, UniProt P41597); assay: hMCP-1 receptor-binding assay
T1 construct: expressed in transfected cells; host or cells: CHO-K1 (clone 7, CHO-CCR2B), membrane fragments
T1 sequence (P41597 1-360 isoform P41597-2): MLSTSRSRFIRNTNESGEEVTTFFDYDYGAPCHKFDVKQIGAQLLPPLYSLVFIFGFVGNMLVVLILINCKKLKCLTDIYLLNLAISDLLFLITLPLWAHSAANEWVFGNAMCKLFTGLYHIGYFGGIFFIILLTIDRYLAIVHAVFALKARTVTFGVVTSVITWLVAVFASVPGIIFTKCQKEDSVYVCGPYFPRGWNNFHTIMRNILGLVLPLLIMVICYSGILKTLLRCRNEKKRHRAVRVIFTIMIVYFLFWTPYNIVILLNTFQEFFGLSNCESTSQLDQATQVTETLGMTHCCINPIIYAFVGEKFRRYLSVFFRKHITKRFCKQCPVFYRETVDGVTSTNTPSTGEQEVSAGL
Text: a) hMCP-1 Receptor-binding Assay i) Clonning and expression of hMCP-1receptor
The MCP-1 receptor B (CCR^2B) cDNA was cloned by PCR from THP-1 cell RNA using suitable oligonucleotide primers based on the published MCP-1 receptor sequences (Charo et al., 1994, Proc. Natl. Acad Sci. USA, 91, 2752). The resulting PCR products were cloned into vector PCR-II™ (InVitrogen, San Diego, Calif.). Error free CCR2B cDNA was subcloned as a Hind III-Not I fragment into the eukaryotic expression vector pCDNA3 (InVitrogen) to generate pCDNA3/CC-CKR2A and pCDNA3/CCR2B respectively.
Linearised pCDNA3/CCR2B DNA was transfected into CHO-K1 cells by calcium phosphate precipitation (Wigler et al., 1979, Cell, 16, 777). Transfected cells were selected by the addition of Geneticin Sulphate (G418, Gibco BRL) at 1 mg/ml, 24 hours after the cells had been transfected. Preparation of RNA and Northern blotting were carried out as described previously (Needham et al., 1995, Prot. Express. Purific., 6, 134). CHO-K1 clone 7 (CHO-CCR^2B) was identified as the highest MCP-1 receptor B expressor. […]
ii) Preparation of membrane fragments […]
^125I MCP-1 was prepared using Bolton and Hunter conjugation (Bolton et al., 1973, Biochem. J., 133, 529; Amersham International plc]. Equilibrium binding assays were carried out using the method of Ernst et al., 1994, J. Immunol., 152, 3541. Briefly, varying amounts of ^125I-labeled MCP-1 were added to […] of purified CHO-CCR2B cell membranes in […] of Binding Buffer. After 1 hour incubation at room temperature the binding reaction mixtures were filtered and washed 5 times through a plate washer (Packard Harvester Filtermate™ 196). Scintillation fluid (25 μl, Microscint™-20, a high efficiency liquid scintillation counting cocktail for aqueous samples) was added to each well and the plate was covered with plate sealer and counted (Packard Top Count™). […] Non-specific binding was determined by the inclusion of a 200-fold molar excess of unlabelled MCP-1 in the reaction. […]

[2] = tested on: hMCP-1 mediated chemotaxis of THP-1 cells; assay: hMCP-1 mediated chemotaxis assay; assay type: cell-based, human
Experimental: as §1, §2, §3

THP-1 cells = assay: MCP-1 mediated calcium flux in THP-1 cells; assay type: cell-based, human; details: stimulation of THP-1 cells with hMCP-1, approximate, from dose response curves; read-out: EC50 for transient rise in [Ca2+]i
Experimental: b) MCP-1 Mediated Calcium Flux in THP-1 Cells
The human monocytic cell line THP-1 was grown in a synthetic cell culture medium RPMI 1640 supplemented with 10% foetal calf serum, 2 mM glutamine and Penicillin-Streptomycin (at 50 μg streptomycin/ml, Gibco BRL). THP-1 cells were washed in HBSS (lacking Ca^2+ and Mg^2+) +1 mg/ml BSA and resuspended in the same buffer at a density of 3×10^6 cells/ml. The cells were then loaded with […]-FURA-2/AM for 30 min at 37° C., washed twice in HBSS, and resuspended at 1×10^6 cells/ml. […] The cuvette was placed in a fluorescence spectrophotometer (Perkin Elmer, Norwalk, Conn.) and preincubated for 4 min at 37° C. with stirring. Fluorescence was recorded over 70 sec and cells were stimulated by addition of hMCP-1 to the cuvette after 10 sec. [Ca^2+]i was measured by excitation at 340 nm and 380 nm alternately and subsequent measurement of the intensity of the fluorescence emission at 510 nm.
where the Kd for FURA-2 Ca^2+ complex at 37° C. was taken to be […]. Rmax is the maximal fluorescence ratio determined after addition of […] lonomycin, Rmin is the minimal ratio determined by the subsequent addition of a Ca^2+ free solution containing 5 mM EGTA, and Sf2/Sb2 is the ratio of fluorescence values at 380 nm excitation determined at Rmin and Rmax, respectively. […]

IC50 [1]: 2660 nM
Compound: O=C(O)c1cc2sccc2n1Cc1ccc(Cl)c(Cl)c1 [Compound No. 8, 4-(3,4-Dichlorobenzyl)thieno[3,2-b]pyrrole-5-carboxylic acid]

IC50 (MCP-1 receptor B (CCR2B); competition with 100 pM labelled MCP-1, CHO-CCR2B cell membranes, read-out: IC50 in the hMCP-1 receptor binding assay): 8300 nM
Compound: Nc1cccc(-c2cc3c(cc(C(=O)O)n3Cc3ccc(Cl)c(Cl)c3)s2)c1 [Compound No. 13, 2-(3-Aminophenyl)-4-(3,4-dichlorobenzyl)thieno[3,2-b]pyrrole-5-carboxylic acid]

IC50 ([2]; Homo sapiens, 1 nM MCP-1 as chemoattractant, THP-1 cells): 1660 nM
Compound: O=C(O)c1cc2occc2n1S(=O)(=O)c1ccc(Cl)c(Cl)c1 [Compound No. 20, 4-(3,4-Dichlorobenzenesulfonyl)furo[3,2-b]pyrrole-5-carboxylic acid]

EC50 (THP-1 cells): ~2 nM
IC50 (MCP-1 receptor B (CCR2B); membrane fragments from CHO-CCR2B cells, cold competition with 125I-labeled MCP-1, read-out: IC50 of MCP-1 binding to CCR2B): 0.11 nM
Kd (MCP-1 receptor B (CCR2B); membrane fragments from CHO-CCR2B cells, equilibrium binding): 0.12 nM
Compound: MCP-1: Monocyte Chemoattractant Protein-1, a C—C chemokine; ligand of the CCR2 receptor
concentration of maximal cell migration (biphasic response) ([2]; hMCP-1 as chemoattractant, concentration dependent cell migration): 0.5-1.0 nm
